System: MCDS mice (homozygous N617K collagen X mutation)
Assay: Tibial growth plate histology, immunohistochemistry, in situ hybridisation and TRAP staining in MCDS mice
Format: in vivo, mouse
Procedure: FIG. 2 illustrates the effect of carbamazepine on the growth plate pathology associated with MCDS. 3 week old MCDS mice were treated with CBZ for a period of one week. Untreated MCDS mice and mice wild-type for collagen X (WT) were used as controls. (a) H+E staining of the tibial growth plate at 4 weeks of age. (b) Immunohistochemistry for Grp78 and (c) Immunohistochemistry for collagen X. Yellow bars show the hypertrophic zone. Scale bars equal to 100 μM in all cases. (d) is a table showing growth plate zone measurements at 4 weeks of age. Mean±SEM. Number of animals shown in brackets. Significance between mutant untreated mice and treated mice shown by the asterisk. (e) Western blots of rib growth plate cartilage at 4 weeks of age for Grp78, ATF4, p62/SQSTM1 and LC3-II alongside the associated coomassie blue stain used as a loading control. Quantification of these blots against the coomassie protein level is shown in supplementary S4. (f) X-ray images of the pelvis at 6 weeks of age. The angle between the lines was measured in a minimum of 5 animals and a graph showing the mean±SEM is shown in (g). Graphs showing the percentage increase in growth of the (h) tibia and (i) femur from 3 weeks of age.
FIG. 3 illustrates the effect of carbamazepine on chondrocyte differentiation MCDS mice were treated with CBZ for 1 week. In situ hybridisation for a) collagen X mRNA levels b) Collagen II mRNA levels c) Osteopontin mRNA levels d) MMP13 mRNA levels. e) TRAP staining for osteoclast number, osteoclasts shown by the white asterisks. (f) Quantification of the number of osteoclasts per mm of vascular invasion front. Mean±SEM. (g) H+E image showing the terminal hypertrophic chondrocytes at the vascular invasion front. g) The height of the most terminal hypertrophic chondrocytes (within the red bracket) was measured, and mean±SEM is shown in (h). Hypertrophic zone marked by the yellow bar. Vascular invasion front shown by the orange line. Scale bar equal to 100 μM in all cases. Mean±SEM (*P<0.05 **P<0.005 ***P<0.0005).
The generation and genotyping of the Col10a1 p.N617K mouse line has been described previously (Rajpar et al 2009). Mice homozygous for the MCDS-causing N617K collagen X mutation were x-rayed at 3 weeks of age and treated with carbamazepine (250 mg/kg/day) for up to 21 days via a subcutaneous implantation of a slow-release pellet (Innovative research of America USA C-113) whilst the mouse was under anaesthetic. The incision was sutured closed, glued using Vetbond tissue adhesive (Santa-Cruz sc-361931) and the mice given an appropriate dose of buprenorphine painkiller depending on their body weight. Male mice were X-rayed once per week in order monitor bone growth; female mice were sacrificed after 1 week of treatment either by cervical dislocation or by carbon dioxide overdose under the provisions of the Animals (Scientific Procedures) Act 1986 and tissues collected for histological analysis. All procedures were carried out according to Home Office regulations.
Hind limbs were dissected and fixed overnight in ice-cold 4% paraformaldehyde (w/v) in 1×DEPC-PBS or 95% ethanol/5% acetic acid (v/v), and decalcified in 0.8 M ethyl-diamine tetracetic acid (EDTA) pH 7.4 for a period of one week. The samples were embedded in paraffin wax and sectioned sagittally using a cool-cut HM 355 S microtime (MicRom) generating 5 μm thick sections. Sections were collected on positively charged superfrost slides (VWR) and dried overnight prior to histological staining, immunohistochemistry or in situ hybridisation.
H+E staining was performed as described previously ^10 and images taken using a Carl Zeiss Axiovision microscope fitted with an Axiocam colour CCD camera and associated Axiovision software.
Growth plate zone widths were measured on images of known magnification as described previously (Rajpar et al 2009). […]

**Q.** How did the “size of the hypertrophic zone” value (250 mg/kg body weight/day, 1 week, vs untreated MCDS controls) turn out when NC(=O)N1c2ccccc2C=Cc2ccccc21 [CBZ, Carbamazepine] was run?
**A.** significant reduction

**Q.** What about the “BiP protein in growth plate sections (immunostaining)” value (1 week) of the same compound?
**A.** reduced

**Q.** What about the “expression pattern of collagen X, collagen II, OPN and MMP13 (in situ hybridisation)” value (CBZ for 1 week) of the same compound?
**A.** altered the expression pattern of each of these markers towards that seen in the WT mouse

**Q.** And the “hypertrophy, based on the height of the terminal hypertrophic chondrocytes” value (CBZ for 1 week)?
**A.** enhanced

**Q.** And the “osteoclast recruitment to the vascular invasion front (TRAP staining)” value (CBZ for 1 week)?
**A.** partially restored

**Q.** What about the “level of extracellular collagen X (immunohistochemistry)” value (tibial growth plate, 1 week) of the same compound?
**A.** no overt increase

**Q.** And the “level of intracellular collagen X (immunohistochemistry)” value (tibial growth plate, 1 week)?
**A.** reduced

Source: patent publication US20190076440A1, “TREATMENT OF TISSUE DISORDERS” (priority 2016, published 2019)
